Experimental findings from patent publication US7605280B2, “Anthraquinone and its derivatives” (Biostatus Limited, priority 1998, dated 2009) are described below.

Where “and” joins values, the source holds several entries; their conditions need not be identical. Identical values can stand only once.

The subject of one data set is viable HL60 cells. Briefly: Flow cytometric analysis of DRAQ5 accumulation (Cytometers A and B). It is filed as cell-based, human. The following applies: Cytometer B, low power 633 nm, 1 h exposure. How it is done:
(§1) HL60 (human promyelocytic-leukaemia cell line) and SUD4 (human B cell lymphoma cell line) were grown as suspension cultures-in-RMPI medium with 10% foetal calf serum, 1 mM glutamine and antibiotics and incubated at 37° C. in an atmosphere of 5% CO2 in air. For flow cytometry experiments, asynchronously growing suspension cultures were diluted to 2.5-4>10^5 cells/ml at 2 h prior to drug treatment. Cell cycle-perturbed populations were obtained by treating SUD4 cells with the drug etoposide (VP-16-213) at 0.25 μM for 18h. Cells were treated with DRAQ5 and FDA as described above. Cell concentrations were determined using a Coulter counter and cell cycle distribution determined using an algorithm for the normal distibution of fluorescence intensity profiles for fluorochrome stained G1 and G2 cells.
Cells were analysed using one of four flow cytometers according to the excitation requirements. • Cytometer A: Single beam high power 647 nm krypton laser excitation: The system was a custom-built cytometer and incorporated an Innova 3000K krypton laser (Coherent Corp., Palo Alto, Calif., USA) tuned to the 647 nm line. Forward light scatter, 90° light scatter and fluorescence emissions were collected for 1×10^4 cells using the 90° light scatter parameter as the master signal. […] Forward and 90° light scatter were analysed for the identification of cell debris. […]
A general note: In flow cytometry, cells or beads pass a laser one at a time.

For the next data set, the system named is SUD4 cells. In words: FACScan (Cytometer C) flow cytometric analysis of DRAQ5-labelled cells. The format is cell-based, human. How it is done: as §1
Suspension cultures were analysed by flow cytometry without washing. Human blood was obtained using routine venepuncture of a healthy donor and samples manipulated using standard haematological procedures for the isolation of mononuclear blood cells and surface antigen recognition using antibody panels (see Table 1).
Cells were analysed using one of four flow cytometers according to the excitation requirements. • Cytometer A: Single beam high power 647 nm krypton laser excitation: The system was a custom-built cytometer and incorporated an Innova 3000K krypton laser (Coherent Corp., Palo Alto, Calif., USA) tuned to the 647 nm line. Forward light scatter, 90° light scatter and fluorescence emissions were collected for 1×10^4 cells using the 90° light scatter parameter as the master signal. The optical system permitted the analysis of various fluorescence emission wavelengths including: >715 nm (termed low infra-red) and, as reported here >780 nm fluorescence (infra-red ). Forward and 90° light scatter were analysed for the identification of cell debris. Laser power was set at 200 mW and linear amplifiers were used for the fluorescence signals. The analysis optics included a 675 nm cold dichroic mirror, ambient laboratory temperature was approximately 12° C. and the sheath reservoir was maintained at 10° C. Filters were supplied by Melles Griot. Median, mean and mode parameters were calculated for the distribution of fluorescence intensity-values throughout a given cell population. In all experiments, median and mean values produced very similar results. Median values alone are reported since this parameter is less affected by the presence of highly fluorescent cells beyond the upper limit for quantification. • Cytometer B: Dual beam low power 633 nm/high power 488 nm laser excitation: The system was a FACS 440 cell sorter (Becton Dickinson Inc., Cowley, UK) incorporating a Spectra Physics argon ion laser (max 500 mW output), tuned to the 488 nm line (100 mW output), and a secondary Spectra Physics 156 helium-neon laser emitting at 633 nm (emitting <5 mW), with a temporal beam separation of about 30 μsec. Forward light scatter, 90° light scatter and fluorescence emissions were collected for 1×10^4 cells using the forward light scatter parameter as the master signal from the primary 488 nm beam, while side scatter was collected through a 488/10 nm band-pass filter. The analysis optics included: i) a cold dichroic mirror (transmitting >675 nm), ii) fluorescence from fluorescein excited by the 488 nm beam detected at a PMT guarded by a 535/15 nm band-pass filter with no signal delay, and iii) a red-sensitive PMT with an appropriate delay, additionally guarded by a 620 nm long-pass filter, to detect the transmitted beam of DRAQ5-associated fluorescence at wavelengths beyond 675 nm (high-red and extending into the infra red region of the spectrum) Forward and 90° light scatter were analysed to exclude any cell debris. All parameters were acquired at 256 channel resolution with Consort 30 software (Becton Dickinson) and subsequently analysed with WinMDI software (J. Trotter, La Jolla, Calif.). […]

A further data set in a line: Solubility. It is filed as physicochemical.

Turning to `CN(C)CCNc1ccc(O)c2c1C(=O)c1c(O)ccc(NCCN(C)C)c1C2=O` [DRAQ5], the “lower end of linear dose-response of 633 nm derived DRAQ5 signal” value with viable HL60 cells is “approximately 2.5 μM”. In addition, in the data set on SUD4 cells (5 min at room temperature, SUD4, lymphocytes, monocytes (FIG. 8)), the “DRAQ5 concentration at which staining saturates” value was at least 10 µM. Moreover, the “increase of mean fluorescence for G2 arrested populations” value with SUD4 cells (Preparation 1, VP-16 arrested versus asynchronous cells) amounted to 1.7 fold. Also, the “Mean fluorescence intensity (±sd) of gated population” value in the data set on SUD4 cells (Preparation 1, 20 μM DRAQ5, 120 min, FL3) is 645.1 ± 177.7; in the data set on SUD4 cells (Preparation 1, cells pretreated 0.25 μM VP-16 × 18 h, 20 μM DRAQ5, 5 min), 891.8 ± 126.4; with SUD4 cells (Preparation 1 viable cultured cells, 20 μM DRAQ5, 5 min, FL3), 499.4 ± 143.3 and 532.4 ± 148.3; with SUD4 cells (Preparation 2, cells pretreated 0.25 μM VP-16, 20 μM DRAQ5, 5 min), 902.7 ± 117.1; in the data set with SUD4 cells (Preparation 2 surface antigen analysis, 20 μM DRAQ5, 5 min), 564.3 ± 147.2. The solubility result in the data set “Solubility” is recorded as “soluble in biologically compatible solvents including water”.
